Measured values published in US9884868B2, “TGF-beta inhibitors” (Rigel Pharmaceuticals, Inc., priority 2015, dated 2018).

biological target: HIS-TGF-βR1 T204D (Homo sapiens (Human), UniProt P36897, T204D); assay: HTRF probe displacement assay with HIS-TGF-βR1 T204D; conditions: not given
Sequence (P36897 34-503 T204D): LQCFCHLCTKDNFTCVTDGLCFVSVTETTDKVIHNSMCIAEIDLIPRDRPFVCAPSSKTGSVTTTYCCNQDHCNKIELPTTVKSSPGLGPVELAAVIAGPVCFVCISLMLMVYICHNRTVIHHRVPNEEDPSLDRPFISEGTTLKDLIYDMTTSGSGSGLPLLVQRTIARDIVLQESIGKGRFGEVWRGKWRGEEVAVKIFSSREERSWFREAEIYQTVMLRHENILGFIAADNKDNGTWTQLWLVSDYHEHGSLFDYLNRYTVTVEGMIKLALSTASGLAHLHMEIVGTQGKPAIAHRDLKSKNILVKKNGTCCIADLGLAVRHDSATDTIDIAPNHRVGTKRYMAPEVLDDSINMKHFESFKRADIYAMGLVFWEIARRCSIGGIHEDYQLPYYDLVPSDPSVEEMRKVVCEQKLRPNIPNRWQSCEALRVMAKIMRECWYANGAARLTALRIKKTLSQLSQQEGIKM

**Q.** With `N#Cc1cnc2ccc(-c3c(-c4ccc(F)c(Cl)c4)ncn3CCC(F)(F)F)nn12` [35′, 6-(4-(3-chloro-4-fluorophenyl)-1-(3,3,3-trifluoropropyl)-1H-imidazol-5-yl)imidazo[1,2-b]pyridazine-3-carbonitrile] as the compound, how does the IC50 read?
**A.** Its IC50 is 2.6 nM.

**Q.** For `N#Cc1cnc2ccc(-c3c(-c4ccc(F)cc4)ncn3CCC(F)(F)F)nn12` [4′, 6-(4-(4-fluorophenyl)-1-(3,3,3-trifluoropropyl)-1H-imidazol-5-yl)imidazo[1,2-b]pyridazine-3-carbonitrile], which IC50 is on record?
**A.** Its IC50 is 6.8 nM.

same assay, conditions: read-out: TGFbr1 IC50; HTRF probe displacement, 1 nM HIS-TGF-βR1 T204D, 1 hour at room temperature

**Q.** With `Fc1ccc(-c2ncn(CC(F)F)c2-c2ccc3ncc(C4CC4)n3c2)cc1` [Example 285′, 3-cyclopropyl-6-(1-(2,2-difluoroethyl)-4-(4-fluorophenyl)-1H-imidazol-5-yl)imidazo[1,2-a]pyridine] as the compound, how does the IC50 read?
**A.** Its IC50 is 38.8 nM.

**Q.** With `Fc1ccc(-c2ncn(CC(F)F)c2-c2ccc3nccn3c2)c(F)c1` [221′, 6-(1-(2,2-difluoroethyl)-4-(2,4-difluorophenyl)-1H-imidazol-5-yl)imidazo[1,2-a]pyridine] as the compound, how does the IC50 read?
**A.** Its IC50 is 6.8 nM.

**Q.** How did the IC50 turn out when `Cc1ccc(-c2ncn(CC(F)F)c2-c2ccc3ncc(C#N)n3n2)cc1` [241′, 6-(1-(2,2-difluoroethyl)-4-(p-tolyl)-1H-imidazol-5-yl)imidazo[1,2-b]pyridazine-3-carbonitrile] was run?
**A.** Its IC50 is 173 nM.

**Q.** With `CC(C)Cn1cnc(-c2ccc(F)cc2)c1-c1ccc2ncc(C(N)=O)n2c1` [168′, 6-(4-(4-fluorophenyl)-1-isobutyl-1H-imidazol-5-yl)imidazo[1,2-a]pyridine-3-carboxamide] as the compound, how does the IC50 read?
**A.** The IC50 was 1.1 nM.

**Q.** For `N#Cc1cnc2ccc(-c3c(-c4ccc(F)c(Cl)c4)ncn3[C@H]3CCC(F)(F)C3)nn12` [64′, (S)-6-(4-(3-chloro-4-fluorophenyl)-1-(3,3-difluorocyclopentyl)-1H-imidazol-5-yl)imidazo[1,2-b]pyridazine-3-carbonitrile], which IC50 is on record?
**A.** The IC50 was 5.1 nM.

**Q.** For `NC(=O)c1cnc2ccc(-c3c(-c4ccc(F)c(Cl)c4)ncn3CCF)nn12` [114′, 6-(4-(3-chloro-4-fluorophenyl)-1-(2-fluoroethyl)-1H-imidazol-5-yl)imidazo[1,2-b]pyridazine-3-carboxamide], which IC50 is on record?
**A.** Its IC50 is 1.3 nM.

**Q.** With `N#Cc1cnc2ccc(-c3c(-c4ccc(F)cc4)ncn3C3COC3)nn12` [13′, 6-(4-(4-fluorophenyl)-1-(oxetan-3-yl)-1H-imidazol-5-yl)imidazo[1,2-b]pyridazine-3-carbonitrile] as the compound, how does the IC50 read?
**A.** Its IC50 is 17 nM.

**Q.** How did the IC50 turn out when `NC(=O)c1cnc2ccc(-c3c(-c4ccc(F)cc4)ncn3C(CO)CO)cn12` [171′, 6-(1-(1,3-dihydroxypropan-2-yl)-4-(4-fluorophenyl)-1H-imidazol-5-yl)imidazo[1,2-a]pyridine-3-carboxamide] was run?
**A.** The IC50 was 8.4 nM.

**Q.** `CC1(n2cnc(-c3ccc(F)c(Cl)c3)c2-c2ccc3ncc(C#N)n3n2)CC1` [41′, 6-(4-(3-chloro-4-fluorophenyl)-1-(1-methylcyclopropyl)-1H-imidazol-5-yl)imidazo[1,2-b]pyridazine-3-carbonitrile] was tested. Which IC50 did it give?
**A.** Its IC50 is 0.9 nM.

**Q.** How did the IC50 turn out when `NC(=O)c1cnc2ccc(-c3c(-c4ccc(F)cc4)ncn3C3CCC3)cn12` [172′, 6-(1-cyclobutyl-4-(4-fluorophenyl)-1H-imidazol-5-yl)imidazo[1,2-a]pyridine-3-carboxamide] was run?
**A.** Its IC50 is 0.5 nM.

**Q.** For `N#Cc1cnc2ccc(-c3c(-c4ccc(F)cc4)ncn3CC3CCC3)cn12` [72′, 6-(1-(cyclobutylmethyl)-4-(4-fluorophenyl)-1H-imidazol-5-yl)imidazo[1,2-a]pyridine-3-carbonitrile], which IC50 is on record?
**A.** The IC50 was 67.8 nM.

**Q.** For `N#Cc1cnc2ccc(-c3c(-c4ccc(F)c(Cl)c4)ncn3CCCF)nn12` [54′, 6-(4-(3-chloro-4-fluorophenyl)-1-(3-fluoropropyl)-1H-imidazol-5-yl)imidazo[1,2-b]pyridazine-3-carbonitrile], which IC50 is on record?
**A.** The IC50 was 0.8 nM.

**Q.** `CC(CCO)n1cnc(-c2ccc(F)cc2)c1-c1ccc2ncc(C#N)n2c1` (centres unmarked) [80′, 6-(4-(4-fluorophenyl)-1-(4-hydroxybutan-2-yl)-1H-imidazol-5-yl)imidazo[1,2-a]pyridine-3-carbonitrile] was tested. Which IC50 did it give?
**A.** The IC50 was 31 nM.

**Q.** For `Fc1ccc(Cl)cc1-c1ncn(CC(F)F)c1-c1ccc2nccn2c1` [222′, 6-(4-(5-chloro-2-fluorophenyl)-1-(2,2-difluoroethyl)-1H-imidazol-5-yl)imidazo[1,2-a]pyridine], which IC50 is on record?
**A.** Its IC50 is 2.9 nM.

**Q.** `N#CC1(n2cnc(-c3ccc(F)cc3)c2-c2ccc3nccn3n2)CC1` [Example 188′, 1-(4-(4-fluorophenyl)-5-(imidazo[1,2-b]pyridazin-6-yl)-1H-imidazol-1-yl)cyclopropanecarbonitrile] was tested. Which IC50 did it give?
**A.** The IC50 was 2 nM.

**Q.** Which IC50 does the source give for `NC(=O)c1cnc2ccc(-c3c(-c4ccc(F)cc4)ncn3CCCF)cn12` [162′, 6-(4-(4-fluorophenyl)-1-(3-fluoropropyl)-1H-imidazol-5-yl)imidazo[1,2-a]pyridine-3-carboxamide] here?
**A.** Its IC50 is 1.9 nM.

**Q.** `CCCn1cnc(-c2ccc(F)cc2)c1-c1ccc2ncc(C(N)=O)n2c1` [177′, 6-(4-(4-fluorophenyl)-1-propyl-1H-imidazol-5-yl)imidazo[1,2-b]pyridine-3-carboxamide] was tested. Which IC50 did it give?
**A.** Its IC50 is 1.1 nM.

**Q.** With `NC(=O)c1cnc2ccc(-c3c(-c4ccc(F)cc4)ncn3CC3CCC3)cn12` [157′, 6-(1-(cyclobutylmethyl)-4-(4-fluorophenyl)-1H-imidazol-5-yl)imidazo[1,2-a]pyridine-3-carboxamide] as the compound, how does the IC50 read?
**A.** The IC50 was 0.8 nM.

**Q.** How did the IC50 turn out when `NC(=O)c1cnc2ccc(-c3c(-c4ccc(F)cc4)ncn3C3COC3)nn12` [126′, 6-(4-(4-fluorophenyl)-1-(oxetan-3-yl)-1H-imidazol-5-yl)imidazo[1,2-b]pyridazine-3-carboxamide] was run?
**A.** Its IC50 is 7.4 nM.

**Q.** Which IC50 does the source give for `NC(=O)c1cnc2ccc(-c3c(-c4ccc(F)cc4F)ncn3CC(F)F)cn12` [233′, 6-(1-(2,2-difluoroethyl)-4-(2,4-difluorophenyl)-1H-imidazol-5-yl)imidazo[1,2-a]pyridine-3-carboxamide] here?
**A.** Its IC50 is 1 nM.

**Q.** With `CC(=O)Nc1cnc2ccc(-c3c(-c4ccc(F)cc4)ncn3CC(F)F)nn12` [Example 212′, N-(6-(1-(2,2-difluoroethyl)-4-(4-fluorophenyl)-1H-imidazol-5-yl)imidazo[1,2-b]pyridazin-3-yl)acetamide] as the compound, how does the IC50 read?
**A.** Its IC50 is 9.3 nM.

**Q.** How did the IC50 turn out when `N=C(NO)c1cnc2ccc(-c3c(-c4ccc(F)cc4)ncn3CC(F)F)nn12` [Example 203′, 6-(1-(2,2-difluoroethyl)-4-(4-fluorophenyl)-1H-imidazol-5-yl)-N-hydroxyimidazo[1,2-b]pyridazine-3-carboximidamide] was run?
**A.** Its IC50 is 1.1 nM.

**Q.** Which IC50 does the source give for `N#Cc1cnc2ccc(-c3c(-c4ccc(O)cc4)ncn3CC(F)F)nn12` [250′, 6-(1-(2,2-difluoroethyl)-4-(4-hydroxyphenyl)-1H-imidazol-5-yl)imidazo[1,2-b]pyridazine-3-carbonitrile] here?
**A.** Its IC50 is 136 nM.

**Q.** With `C=Cc1cnc2ccc(-c3c(-c4ccc(F)cc4)ncn3CC(F)F)nn12` [213E′, 6-(1-(2,2-difluoroethyl)-4-(4-fluorophenyl)-1H-imidazol-5-yl)-3-vinylimidazo[1,2-b]pyridazine] as the compound, how does the IC50 read?
**A.** Its IC50 is 1.6 nM.

**Q.** `Nc1cnc2ccc(-c3c(-c4ccc(F)cc4)ncn3CC(F)F)cn12` [284D′, 6-(1-(2,2-difluoroethyl)-4-(4-fluorophenyl)-1H-imidazol-5-yl)imidazo[1,2-a]pyridin-3-amine] was tested. Which IC50 did it give?
**A.** Its IC50 is 1.2 nM.

**Q.** `N#Cc1cnc2ccc(-c3c(-c4ccc(F)c(Cl)c4)ncn3C3CC(F)(F)C3)nn12` [53′, 6-(4-(3-chloro-4-fluorophenyl)-1-(3,3-difluorocyclobutyl)-1H-imidazol-5-yl)imidazo[1,2-b]pyridazine-3-carbonitrile] was tested. Which IC50 did it give?
**A.** Its IC50 is 2.1 nM.

**Q.** With `N#Cc1cnc2ccc(-c3c(-c4ccc(F)cc4)ncn3CCCF)cn12` [84′, 6-(4-(4-fluorophenyl)-1-(3-fluoropropyl)-1H-imidazol-5-yl)imidazo[1,2-a]pyridine-3-carbonitrile] as the compound, how does the IC50 read?
**A.** The IC50 was 121 nM.

**Q.** How did the IC50 turn out when `CC(C)n1cnc(-c2ccc(F)cc2)c1-c1ccc2ncc(C#N)n2c1` [79′, 6-(4-(4-fluorophenyl)-1-isopropyl-1H-imidazol-5-yl)imidazo[1,2-a]pyridine-3-carbonitrile] was run?
**A.** Its IC50 is 55.3 nM.

**Q.** With `NC(=O)c1cnc2ccc(-c3c(-c4ccc(F)c(F)c4)ncn3CC(F)F)cn12` [232′, 6-(1-(2,2-difluoroethyl)-4-(3,4-difluorophenyl)-1H-imidazol-5-yl)imidazo[1,2-a]pyridine-3-carboxamide] as the compound, how does the IC50 read?
**A.** Its IC50 is 1.8 nM.

**Q.** `NC(=O)c1cnc2ccc(-c3c(-c4ccc(F)c(Cl)c4)ncn3C3CC(F)C3)nn12` (centres unmarked) [141′, 6-(4-(3-chloro-4-fluorophenyl)-1-(3-fluorocyclobutyl)-1H-imidazol-5-yl)imidazo[1,2-b]pyridazine-3-carboxamide] was tested. Which IC50 did it give?
**A.** The IC50 was 0.8 nM.

**Q.** For `N#Cc1cnc2ccc(-c3c(-c4ccc(F)cc4)ncn3CC3CCCO3)nn12` (centres unmarked) [31′, 6-(4-(4-fluorophenyl)-1-((tetrahydrofuran-2-yl)methyl)-1H-imidazol-5-yl)imidazo[1,2-b]pyridazine-3-carbonitrile], which IC50 is on record?
**A.** The IC50 was 1.9 nM.

**Q.** For `NC(=O)c1cnc2ccc(-c3c(-c4ccc(F)cc4)ncn3C3COC3)cn12` [173′, 6-(4-(4-fluorophenyl)-1-(oxetan-3-yl)-1H-imidazol-5-yl)imidazo[1,2-a]pyridine-3-carboxamide], which IC50 is on record?
**A.** The IC50 was 6.6 nM.

**Q.** `CCn1cnc(-c2ccc(F)c(Cl)c2)c1-c1ccc2ncc(C(N)=O)n2c1` [119′, 6-(4-(3-chloro-4-fluorophenyl)-1-ethyl-1H-imidazol-5-yl)imidazo[1,2-a]pyridine-3-carboxamide] was tested. Which IC50 did it give?
**A.** The IC50 was 0.4 nM.

**Q.** `N#Cc1cnc2ccc(-c3c(-c4ccc(F)c(F)c4)ncn3CC(F)F)cn12` [226′, 6-(1-(2,2-difluoroethyl)-4-(3,4-difluorophenyl)-1H-imidazol-5-yl)imidazo[1,2-a]pyridine-3-carbonitrile] was tested. Which IC50 did it give?
**A.** Its IC50 is 73.2 nM.

**Q.** With `N#Cc1cnc2ccc(-c3c(-c4ccc(F)cc4)ncn3C3CC3)cn12` [77′, 6-(1-cyclopropyl-4-(4-fluorophenyl)-1H-imidazol-5-yl)imidazo[1,2-a]pyridine-3-carbonitrile] as the compound, how does the IC50 read?
**A.** Its IC50 is 19.8 nM.

**Q.** For `N#Cc1cnc2ccc(-c3c(-c4ccc(F)c(Cl)c4)ncn3CCCO)nn12` [38′, 6-(4-(3-chloro-4-fluorophenyl)-1-(3-hydroxypropyl)-1H-imidazol-5-yl)imidazo[1,2-b]pyridazine-3-carbonitrile], which IC50 is on record?
**A.** The IC50 was 1 nM.
